The values below are quoted from earlier work in US8734864B2, “Methods for increasing human growth hormone levels” (Quality IP Holdings, LLC, priority 2012, dated 2014).

One series concerns hGH secretion. The following applies: for Increase in hGH (in words): other amino acids, literature.
For series [1] the following is noted: subcutaneous injection of 0.06 IU, GH deficient subjects.

Consider `N=C(N)NCCC[C@H](N)C(=O)O` [arginine], for which the “Elevation of serum hGH levels” value in the series with hGH secretion (30 g, males) is on record as 8.6 fold. For the same molecule, the “Increase of hGH levels” value in the series on hGH secretion (intravenous infusion of 183 mg/kg body weight, females) was above 20 fold.

With `N[C@@H](Cc1c[nH]cn1)C(=O)O` [histidine], the “Increase in hGH (in words)” value in the series with hGH secretion was “marked increases in hGH”.

For the molecule `NCCCC[C@H](N)C(=O)O` [lysine], the “Increase in hGH (in words)” value in the series on hGH secretion is listed as “marked increases in hGH”.

In the case of `CSCC[C@H](N)C(=O)O` [methionine], the “Increase in hGH (in words)” value in the series with hGH secretion is given as “marked increases in hGH”.

With `NCCC[C@H](N)C(=O)O` [ornithine], in the series with hGH secretion, the “Increase in hGH (in words)” value is “marked increases in hGH”.

On to `N[C@@H](Cc1ccccc1)C(=O)O` [phenylalanine], for which the “Increase in hGH (in words)” value with hGH secretion is “marked increases in hGH”.

For the molecule “HGH: human growth hormone given by subcutaneous injection to GH deficient subjects (literature)”, the “Mean levels of GH reached” value in series [1] is 0.4 ng/mL.
